From publication PMC8244912, “An oxytocin/vasopressin-related neuropeptide modulates social foraging behavior in the clonal raider ant” (PLoS Biology, 2021) come the findings set out here.

SMILES strings stand for the structures. “Also recorded” adds a separate entry of the source. Where a SMILES comes first, the peptide text is derived from it. Bridges are numbered along the chain shown (N, C = ends).

The target in experiment [1] is O. biroi inotocin receptor (ObiroiItr_A) (Ooceraea biroi, UniProt A0A8F5LPT9). The experiment can be described thus: Calcium flux, HEK293T cells transfected with full-length inotocin receptor (FLIPR Calcium 4). The class given is cell-based. Particulars: for HillSlope / LogEC50: variable slope; for LogEC50: X data log of Molar_Inotocin. From the text: RNA was isolated in TRIzol using the RNeasy (Qiagen, Germantown, Maryland, USA) purification kit with DNAse I (Qiagen) on-column digestion as in [52] from a sample that contained adult ants, larvae, and pupae and reverse-transcribed into cDNA. Full-length cDNAs for the O. biroi inotocin receptor were PCR amplified with primers 5′-[…]-3′ and 5′-[…]-3′, using the Easy-A high fidelity polymerase (Agilent, Santa Clara, California, USA) to generate PCR products with 5′-Kozak consensus sequences and 3′-A overhangs. The inotocin receptor cDNAs were cloned into the pcDNA3.3 TOPO TA cloning vector (Invitrogen, Waltham, Massachusetts, USA) following manufacturer’s guidelines.
Sequence of O. biroi inotocin receptor (ObiroiItr_A) (A0A8F5LPT9 entry or part of it): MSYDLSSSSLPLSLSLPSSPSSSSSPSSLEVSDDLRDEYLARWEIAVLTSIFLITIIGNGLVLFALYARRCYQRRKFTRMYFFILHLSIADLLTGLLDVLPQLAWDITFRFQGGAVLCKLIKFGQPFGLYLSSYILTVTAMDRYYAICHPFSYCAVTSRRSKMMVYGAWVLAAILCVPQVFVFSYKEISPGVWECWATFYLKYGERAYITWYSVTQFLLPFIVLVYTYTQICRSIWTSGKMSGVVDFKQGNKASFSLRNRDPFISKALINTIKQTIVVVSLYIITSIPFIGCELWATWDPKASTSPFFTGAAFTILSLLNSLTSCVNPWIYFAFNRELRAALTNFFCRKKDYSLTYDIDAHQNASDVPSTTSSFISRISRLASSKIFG
The full-length inotocin receptor cDNA sequence that was cloned and used for calcium assays is ObiroiItr_A (GenBank MW660838; for protein sequence, see S1 Fig). We also tested splice variant ObiroiItr_H (GenBank MW660845; for protein sequence, see S1 Fig), which lacks TM4-7, for calcium activity.
Human embryonic kidney 293T (HEK293T) cells were cultured in DMEM supplemented with 10% FBS at 37°C in a tissue culture incubator with a humidified atmosphere containing 5% CO2. Cells were plated in 10-cm dishes, and, when they reached 60% to 70% confluency, they were transfected with a pcDNA3.3 vector containing approximately 1 ng of inotocin receptor cDNA or an empty vector as a control using Lipofectamine 2000. Cells were transfected directly into poly-D-lysine–coated 384-well plates and incubated for 48 hours at 37°C. Subsequently, cells were incubated with FLIPR Calcium 4 Assay kit dye for 1 hour in the incubator. The fluorescence (excitation, 488 nm; emission, 530 nm) of the wells was recorded using a Flex Station II 384 (Molecular Devices, San Jose, California, USA), […], in sextuplicate (see below for inotocin peptide synthesis). We calculated the EC50 values using Prism (GraphPad Software version 8) nonlinear regression, 4-parameter logistic curve fit. Dose curves were repeated at least 3 times on independently prepared samples and different days.
Background: Calcium flux is commonly read through the fluorescence of an indicator in the cells.

Experiment [2] relates to HEK293T cells transfected with an empty vector. The experiment can be described thus: Calcium flux, HEK293T cells transfected with empty vector. Particulars: inotocin 100 nM. The class given is cell-based, human. The protocol:
Human embryonic kidney 293T (HEK293T) cells were cultured in DMEM supplemented with 10% FBS at 37°C in a tissue culture incubator with a humidified atmosphere containing 5% CO2. Cells were plated in 10-cm dishes, and, when they reached 60% to 70% confluency, they were transfected with a pcDNA3.3 vector containing approximately 1 ng of inotocin receptor cDNA or an empty vector as a control using Lipofectamine 2000. Cells were transfected directly into poly-D-lysine–coated 384-well plates and incubated for 48 hours at 37°C. Subsequently, cells were incubated with FLIPR Calcium 4 Assay kit dye for 1 hour in the incubator. The fluorescence (excitation, 488 nm; emission, 530 nm) of the wells was recorded using a Flex Station II 384 (Molecular Devices, San Jose, California, USA), and a dose curve of inotocin (0 to 3 μM) was applied to the wells, in sextuplicate (see below for inotocin peptide synthesis). We calculated the EC50 values using Prism (GraphPad Software version 8) nonlinear regression, 4-parameter logistic curve fit. Dose curves were repeated at least 3 times on independently prepared samples and different days. Results were consistent across replicates, and example dose curves are shown in Fig 1C and S4A Fig. Control experiments are shown in S2–S5 Figs.

The subject of another experiment is Ooceraea biroi ants. The experiment can be described thus: Pharmacological immersion, age- and brood-controlled colonies: distance traveled (automated tracking). In kind it is in vivo. The following applies: for foraging activity / distance traveled vs control peptide: immersion in 1 mM, 5 h, n = 20 ants. The source says:
Mature O. biroi inotocin peptide (CLITNCPRG) was synthesized and cyclized at The Rockefeller University Proteomics Resource Center, along with a scrambled version of the peptide (NRPCGLTCI) as a negative control with identical amino acid composition.
For the full experiment (Fig 3), we set up 20 experimental colonies of line B ants that were color painted as previously described. Each colony consisted of 16 ants in an airtight Petri dish with 5-cm diameter. Eight ants in each colony were 3 weeks old, and 8 ants in each colony were 20 weeks old. We added ten 3- to 4-day-old larvae to each of 10 colonies and 10 white (young) pupae to each of the remaining 10 colonies. Brood items often die soon after introduction to a colony, so we added 2 extra brood items per colony to ensure there were 8 alive at the start of the experiment. After the ants had settled for 3 days, we adjusted the number of brood items to 8 per colony, after which we performed the pharmacological treatments. The rationale of having a 1:2 larvae-to-workers ratio in this experiment was to assess the possible effect of increased inotocin levels on worker behavior without saturating the brood signal, as ant larvae regulate worker foraging behavior in a dose-dependent manner.
On the day of the experiment, colonies were not fed. To avoid disturbance to the colony as much as possible, half the colony was left untreated, and half was treated. The treatments consisted of immersing the ants in 1 mM solution of freshly dissolved inotocin or control peptide diluted in water and kept on ice. The immersion took place in 1.5-ml Eppendorf tubes that were gently tapped against the bench top for 7 consecutive minutes, after which the liquid was removed using a 1.5-ml transfer pipette. The remaining liquid was removed with a Kimwipe, and ants were transferred to their source colony. In each colony, we treated 2 ants per age category with inotocin and 2 ants per age category with the control peptide. Ants were allowed to recover for 1 hour after the treatment before the start of the video recordings.
Videos were recorded for 5 hours at 5 frames per second using Logitech C910 USB cameras. Individual ants were tracked using anTraX [85]. In short, ants were segmented using a background subtraction and fixed threshold procedure. Blobs in consecutive frames were threaded into sequences using the Horn–Schunk optical flow method and then classified as single ants or multiple ants based on blob size and linkage criteria. Single ant blob sequences were classified into their appropriate IDs as detailed in [85]. Ants that were detected as single blobs were deemed “active,” and their location was recorded (Fig 3B). The activity level of an ant was defined as the total distance traveled, and an activity time course was created for each ant by summing its activity in time bins of 15 minutes for the entire duration of the experiment. All ants in a colony were tracked. The activity across ants from a given condition from all experimental colonies was averaged in each time bin. The resulting curves were fitted with first- or second-order polynomials using nonlinear regression (least squares fit). The fitted curves were compared using extra sum-of-squares F-tests to select for the best fitted model and to compare between fitted curves, and statistical significance thresholds were adjusted for 2 comparisons within experiments using Bonferroni corrections (old inotocin versus old mock and young inotocin versus young mock). […]

Take `CC[C@H](C)[C@@H]1NC(=O)[C@H](CC(C)C)NC(=O)[C@@H](N)CSSC[C@@H](C(=O)N2CCC[C@H]2C(=O)N[C@@H](CCCNC(=N)N)C(=O)NCC(N)=O)NC(=O)[C@H](CC(N)=O)NC(=O)[C@H]([C@@H](C)O)NC1=O` [Inotocin] (H-CLITNCPRG-NH2; disulfide 1-6; N-terminus and C-terminus assumed): the HillSlope in experiment [1] (Fig 1C data, Experiment 33015, SE 0.01132, 95% CI 0.2802 to 0.3251) was found to be 0.3027; in experiment [1] (S4A Fig, 032515_plate 2, SE 0.02063, 95% CI 0.2625 to 0.3443) it was 0.3034. The LogEC50 in experiment [1] (Fig 1C data, Experiment 33015, SE 0.05558, 95% CI -11.24 to -11.02) is recorded as -11.13; in experiment [1] (S4A Fig, 032515_plate 2, SE 0.1002, 95% CI -11.47 to -11.07) it was -11.27. The “calcium response” value in experiment [1] (HEK293T cells expressing full-length itcR) is “responds in a dose-dependent manner to inotocin; also recorded: responded with calcium signals”; in experiment [2], “No Ca^2+ influx is detected”. Moreover, the “half-maximal effective concentration (EC50), in words” value in experiment [1] (cells transfected with the inotocin receptor, calcium signals) is on record as “picomolar”. The “foraging activity / distance traveled vs control peptide” value in the experiment on Ooceraea biroi ants (old ants, larvae present, p < 0.0002, Bonferroni corrected) is reported as “forage more than old ants treated with a control peptide; also recorded: displayed increased foraging activity in the presence of larvae; also recorded: had higher average distance traveled than ants under any other experimental condition”; in the experiment on Ooceraea biroi ants (old ants, pupae present, p = 0.998, p > 0.99, Bonferroni corrected), “no difference in foraging activity was found; also recorded: no effect of inotocin treatment was observed”; in the experiment with Ooceraea biroi ants (young ants, larvae present, p = 0.106, p = 0.109, Bonferroni corrected) it was “No difference in foraging activity was detected; also recorded: no behavioral difference”; in the experiment on Ooceraea biroi ants (young ants, pupae present, p < 0.0002, Bonferroni corrected), “foraged more when treated with inotocin; also recorded: slightly increased their activity; also recorded: increased their average distance traveled compared to ants under any other experimental condition”. Also, in the experiment with Ooceraea biroi ants (overall statement, contingent on age and social context), the “tendency to leave the nest” value is given as “increases the tendency of ants to leave the nest”.
